Test results taken from US20230265056A1, “CRYSTALLINE FORMS OF BENZAMIDE COMPOUND AND PROCESS FOR PREPARING THE SAME” (CRYSTAL PHARMATECH CO., LTD., priority 2020, published 2023).
≈ marks a conversion by molar mass, not a printed value. Blank lines part the entries; values can stand above or below the compound they belong to.

What was measured:
[1] = would covert to Form A under certain conditions; cited from earlier work
[2] = Hygroscopicity by DVS test, with XRPD before and after; assay type: physicochemical; details: for Water uptake at 25° C., 80% / Water uptake at 25° C., 90%: DVS; for Water uptake at 25° C., 80%: 80% relative humidity; for Water uptake at 25° C., 90%: 90% relative humidity
Description: The dynamic vapor sorption diagrams of the present disclosure were collected on Intrinsic-type and Intrinsic Plus-type dynamic vapor sorption instruments of SMS company. The process parameters of the dynamic vapor sorption test of the present disclosure were as follows:
Protection gas and its flow rate: N2, 200 mL/minute
Minimum dm/dt equilibration time: 10 minutes
Maximum Equilibration Time: 180 minutes
Relative humidity range: 0% RH-95% RH-0% RH, 50% RH-95% RH-0% RH
Relative humidity gradient: 10% (0% RH-90% RH-0% RH), 5% (90% RH-95% RH and 95% RH-90% RH).
Weigh approximately 10 mg of a form of formula (I) (i.e., Form A from WO2020234779A1), 10 mg of Form J and 10 mg of amorphous for DVS test, and then collect the obtained solid for XRPD analysis. The DVS plots of Form A, Form J and amorphous were shown in FIGS. 6, 8 and 10, and the XRPD overlay were shown in
Following is Description and definition of hygroscopicity (see appendix XIX J, guidance for hygroscopicity evaluation of Pharmacopoeia of the People's Republic of China 2010): […]

[3] = Kinetic solubility in SGF, FaSSIF, FeSSIF and pure water (HPLC); details: for solubility kinetic at 1 h / solubility kinetic at 4 h / solubility kinetic at 24 h: thermodynamic from solid
Description: (§1) Suspend Form J (from example 1), amorphous (from example 2) and Form A (from WO2020234779A1) in Simulated Gastric Fluid (SGF), Fasted-State Simulated Intestinal Fluid (FaSSIF), Fed-State Simulated Intestinal Fluid (FeSSIF) and pure water, respectively. After equilibrium for 1 hour, 8 hours and 24 hours, filter the solution for HPLC test.

[4] = Intrinsic dissolution of compressed thin tablet; assay type: physicochemical; details: pH 1.5 aqueous HCl solution
Description: Approximately 100 mg of each of Form J (from example 1) and Form A (from WO2020234779A1) were compressed by intrinsic dissolution mold under 10 kN pressure to obtain a thin tablet with surface area of 1.0 cm2, respectively. Dissolution experiment was performed on the tablets, and the corresponding result was summarized in Table 4, dissolution profile was shown in FIG. 16.

[5] = Solid-state stability (XRPD and HPLC purity); assay type: physicochemical; details: for Purity: HPLC; for Solid form: XRPD
Description: Weigh appropriate amount of Form J (from example 1) into a 5-mL glass vial, and then seal the vial with parafilm (pricked 5 pinholes). Place the vial under 25° C./60% RH and 40° C./75% RH for some time, and then separate several solids out for XRPD and HPLC purity test.

Crystal habit by PLM = assay type: physicochemical; details: compared with Form A
Description: About 10 mg of Form J (from example 1) and Form A (from WO2020234779A1) were weighed and placed onto a glass slide, respectively, the solid were dispersed with several vacuum pump oil, and then covered with a cover glass. The samples were observed using PLM.

PSD test = assay type: physicochemical; details: Isopar G (0.2% lecithin), before and after sonication for 30 s, compared with Form A
Description: Approximately 10-30 mg of each of Form J (from example 1) and Form A (from WO2020234779A1) were added into 5 mL Isopar G (0.2% lecithin) to form a suspension, respectively. The suspension was loaded into SDC system for data collection, which was collected before and after sonication for 30 s.

[6] = Sticking propensity (powder adhering to punch tip); assay type: physicochemical; details: 6 mm circle punches, 10 kN pressure, compared with Form A
Description: Approximately 30 mg of each of Form J (from example 1) and Form A (from WO2020234779A1) were compressed by 6 mm circle punches under 10 kN pressure, respectively. The loading mass (ML) and tablet mass (MT) were recorded, and mass percentage of powder adhering to punch tip (ma) was calculated by the equation of ma=(ML−MT)/ML×100%.

physchem = details: thermodynamic from solid
Description: as §1

SMILES: C=CC(=O)N(C)CCOc1c(N)ncnc1-c1cc(F)cc(NC(=O)c2ccc(C3CC3)cc2F)c1C [Form B, N-(3-(6-amino-5-(2-(N-methylacrylamido)ethoxy)pyrimidin-4-yl)-5-fluoro-2-methylphenyl)-4-cyclopropyl-2-fluorobenzamide]
Thermodynamic stability [1]: less thermodynamically stable

Water uptake at 25° C., 80% [2]: 3.37%
Water uptake at 25° C., 90% [2]: 4.14%
Kinetic solubility ([3]; FaSSIF, 24 hr): 11 µg/mL
solubility kinetic at 1 h ([3]; Fasted-State Simulated Intestinal Fluid (FaSSIF), fassif, 1 hr): 10 µg/mL (≈ 19.7 µM)
solubility kinetic at 4 h ([3]; Fasted-State Simulated Intestinal Fluid (FaSSIF), fassif, 4 hr): 11 µg/mL (≈ 21.7 µM)
solubility kinetic at 1 h ([3]; Fed-State Simulated Intestinal Fluid (FeSSIF), fessif, 1 hr): 33 µg/mL (≈ 65 µM)
solubility kinetic at 4 h ([3]; Fed-State Simulated Intestinal Fluid (FeSSIF), fessif, 4 hr): 34 µg/mL (≈ 67 µM)
solubility kinetic at 24 h ([3]; Fed-State Simulated Intestinal Fluid (FeSSIF), fessif, 24 hr): 33 µg/mL (≈ 65 µM)
Kinetic solubility ([3]; SGF, 1 hr): 1400 µg/mL
solubility kinetic at 4 h ([3]; Simulated Gastric Fluid (SGF), simulated gastric fluid, SGF, 4 hr): 1000 µg/mL (≈ 1970 µM)
solubility kinetic at 24 h ([3]; Simulated Gastric Fluid (SGF), simulated gastric fluid, SGF, 24 hr): 950 µg/mL (≈ 1870 µM)
solubility kinetic at 1 h ([3]; pure water, water, H2O, 1 hr): 4.6 µg/mL (≈ 9.06 µM)
solubility kinetic at 4 h ([3]; pure water, water, H2O, 4 hr): 4.4 µg/mL (≈ 8.67 µM)
solubility kinetic at 24 h ([3]; pure water, water, H2O, 24 hr): 4.3 µg/mL (≈ 8.47 µM)
SMILES: C=CC(=O)N(C)CCOc1c(N)ncnc1-c1cc(F)cc(NC(=O)c2ccc(C3CC3)cc2F)c1C [Amorphous, N-(3-(6-amino-5-(2-(N-methylacrylamido)ethoxy)pyrimidin-4-yl)-5-fluoro-2-methylphenyl)-4-cyclopropyl-2-fluorobenzamide]
Hygroscopicity ([2]; class per Pharmacopoeia of the People's Republic of China 2010): Hygroscopic (increase in mass is less than 15 percent and equal to or greater than 2 percent)

Water uptake at 25° C., 80% [2]: 0.53%
Water uptake at 25° C., 90% [2]: 0.60%
Cumulative dissolution amount ([4]; 5 mins): 1.1 mg
Cumulative dissolution amount ([4]; 10 mins): 2.5 mg
Cumulative dissolution amount ([4]; 15 mins): 2.9 mg
Cumulative dissolution amount ([4]; 20 mins): 3.3 mg
Cumulative dissolution amount ([4]; 25 mins): 3.9 mg
Cumulative dissolution amount ([4]; 30 mins): 4.7 mg
Cumulative dissolution amount ([4]; 60 mins): 5.6 mg
Cumulative dissolution amount ([4]; 75 mins): 7.2 mg
Purity/initial Purity ([5]; 25° C./60% RH, 1 week): 99.6%
Purity ([5]; 25° C./60% RH, 1 week): 99.09 area %
Solid form ([5]; 25° C./60% RH, 1 week): Form J
Purity/initial Purity ([5]; 25° C./60% RH, 2 weeks): 99.0%
Purity ([5]; 25° C./60% RH, 2 weeks): 98.48 area %
Solid form ([5]; 25° C./60% RH, 2 weeks): Form J
Purity/initial Purity ([5]; 25° C./60% RH, 4 weeks): 99.2%
Purity ([5]; 25° C./60% RH, 4 weeks): 98.71 area %
Solid form ([5]; 25° C./60% RH, 4 weeks): Form J
Purity/initial Purity ([5]; 25° C./60% RH, 8 weeks): 98.7%
Purity ([5]; 25° C./60% RH, 8 weeks): 97.94 area %
Solid form ([5]; 25° C./60% RH, 8 weeks): Form J
Purity/initial Purity ([5]; 40° C./75% RH, 1 week): 99.6%
Purity ([5]; 40° C./75% RH, 1 week): 99.05 area %
Solid form ([5]; 40° C./75% RH, 1 week): Form J
Purity/initial Purity ([5]; 40° C./75% RH, 2 weeks): 98.9%
Purity ([5]; 40° C./75% RH, 2 weeks): 98.39 area %
Solid form ([5]; 40° C./75% RH, 2 weeks): Form J
Purity/initial Purity ([5]; 40° C./75% RH, 4 weeks): 99.0%
Purity ([5]; 40° C./75% RH, 4 weeks): 98.42 area %
Solid form ([5]; 40° C./75% RH, 4 weeks): Form J
Purity/initial Purity ([5]; 40° C./75% RH, 8 weeks): 98.0%
Purity ([5]; 40° C./75% RH, 8 weeks): 97.32 area %
Solid form ([5]; 40° C./75% RH, 8 weeks): Form J
Crystal habit (Crystal habit by PLM): better crystal habit than Form A
Sticking propensity [6]: lower sticking propensity than Form A
solubility kinetic at 1 h (physchem; fassif): 24 µg/mL (≈ 47.3 µM)
solubility kinetic at 4 h (physchem; fassif): 14 µg/mL (≈ 27.6 µM)
solubility kinetic at 24 h (physchem; fassif): 16 µg/mL (≈ 31.5 µM)
solubility kinetic at 1 h (physchem; fessif): 130 µg/mL (≈ 256 µM)
solubility kinetic at 4 h (physchem; fessif): 53 µg/mL (≈ 104 µM)
solubility kinetic at 24 h (physchem; fessif): 57 µg/mL (≈ 112 µM)
solubility kinetic at 1 h (physchem; simulated gastric fluid): 2400 µg/mL (≈ 4730 µM)
solubility kinetic at 4 h (physchem; simulated gastric fluid): 2700 µg/mL (≈ 5320 µM)
solubility kinetic at 24 h (physchem; simulated gastric fluid): 2600 µg/mL (≈ 5120 µM)
solubility kinetic at 1 h (physchem; water): 12 µg/mL (≈ 23.6 µM)
solubility kinetic at 4 h (physchem; water): 15 µg/mL (≈ 29.6 µM)
solubility kinetic at 24 h (physchem; water): 19 µg/mL (≈ 37.4 µM)
SMILES: C=CC(=O)N(C)CCOc1c(N)ncnc1-c1cc(F)cc(NC(=O)c2ccc(C3CC3)cc2F)c1C [Form J, N-(3-(6-amino-5-(2-(N-methylacrylamido)ethoxy)pyrimidin-4-yl)-5-fluoro-2-methylphenyl)-4-cyclopropyl-2-fluorobenzamide]
Dissolution compared with Form A [4]: larger total dissolution amount and higher cumulative dissolution rate than Form A
Form change and HPLC purity decrease on storage ([5]; 25° C./60% RH and 40° C./75% RH for 8 weeks): no obvious form change and HPLC purity decrease
Particle size distribution (PSD test): more uniform particle size distribution than Form A

Water uptake at 25° C., 80% [2]: 0.54%
Water uptake at 25° C., 90% [2]: 0.68%
Cumulative dissolution amount ([4]; 5 mins): 0.5 mg
Cumulative dissolution amount ([4]; 10 mins): 0.9 mg
Cumulative dissolution amount ([4]; 15 mins): 1.3 mg
Cumulative dissolution amount ([4]; 20 mins): 1.6 mg
Cumulative dissolution amount ([4]; 25 mins): 2.1 mg
Cumulative dissolution amount ([4]; 30 mins): 2.7 mg
Cumulative dissolution amount ([4]; 60 mins): 3.2 mg
Cumulative dissolution amount ([4]; 75 mins): 4.3 mg
Kinetic solubility ([3]; FaSSIF, 1 hr): 6.1 µg/mL
Kinetic solubility ([3]; FaSSIF, 4 hr): 6.5 µg/mL
Kinetic solubility ([3]; FaSSIF, 24 hr): 5 µg/mL
Kinetic solubility ([3]; FeSSIF, 1 hr): 20 µg/mL
Kinetic solubility ([3]; FeSSIF, 4 hr): 22 µg/mL
Kinetic solubility ([3]; FeSSIF, 24 hr): 22 µg/mL
Kinetic solubility ([3]; H2O, 1 hr): 3.7 µg/mL
Kinetic solubility ([3]; H2O, 4 hr): 3.9 µg/mL
Kinetic solubility ([3]; H2O, 24 hr): 2.9 µg/mL
Kinetic solubility ([3]; SGF, 1 hr): 690 µg/mL
Kinetic solubility ([3]; SGF, 4 hr): 710 µg/mL
Kinetic solubility ([3]; SGF, 24 hr): 700 µg/mL
SMILES: C=CC(=O)N(C)CCOc1c(N)ncnc1-c1cc(F)cc(NC(=O)c2ccc(C3CC3)cc2F)c1C [Form A, N-(3-(6-amino-5-(2-(N-methylacrylamido)ethoxy)pyrimidin-4-yl)-5-fluoro-2-methylphenyl)-4-cyclopropyl-2-fluorobenzamide, reference compound]
